The source made the active and inactive calls. The rule behind the calls is not given here.
Columns and labels:
[1] = test system: Mus musculus; test: Antiphotoaging activity in DBA-2 mouse assessed as reduction of UVB-induced PCNA-positive cell in ear tissue at 92.4 to 462.2 mg/kg, po as powder qd for 12 days; assay type: functional, organism-based
[2] = test system: Mus musculus; test: Antiphotoaging activity in DBA-2 mouse assessed as reduction of UVB-induced epidermal hyperproliferation in ear tissue at 92.4 mg/kg, po as powder qd for 12 days relative to untreated control; assay type: functional, organism-based; design: dose 92.4 mg/kg
[3] = test system: Mus musculus; test: Antiphotoaging activity in DBA-2 mouse assessed as reduction of UVB-induced epidermal hyperproliferation in ear tissue administered as po as powder qd for 12 days relative to untreated control; assay type: functional, organism-based
[4] = test system: Mus musculus; test: Antiphotoaging activity in DBA-2 mouse assessed as reduction of UVB-induced epidermal hyperproliferation in ear tissue at 462.2 mg/kg, po as powder qd for 12 days relative to untreated control; assay type: functional
[5] = target: Transcription factor p65 (Homo sapiens) (UniProt Q04206); test: Inhibition of NF-kappaB p65 expressed in human keratinocytes co-cultured with human epidermal melanocytes assessed as inhibition of melanocyte proliferation at 4 uM by WST-1 assay; assay type: cell-based
[6] = target: Transcription factor p65 (Homo sapiens) (UniProt Q04206); test: Inhibition of NF-kappaB-65 (unknown origin) expressed in human dermal fibroblasts assessed as inhibition of MMP1 production at 4 uM by EIA
[7] = target: Transcription factor p65 (Homo sapiens) (UniProt Q04206); test: Inhibition of NF-kappaB-65 (unknown origin) expressed in human keratinocytes assessed as inhibition of bFGF production at 4 uM by EIA; assay type: cell-based
[8] = target: Transcription factor p65 (Homo sapiens) (UniProt Q04206); test: Inhibition of NF-kappaB-65 (unknown origin) expressed in TNFalpha-stimulated HEK293 cells assessed inhibition of nuclear translocation at 8 uM after 3 hrs; assay type: cell-based
[9] = target: Transcription factor p65 (Homo sapiens) (UniProt Q04206); test: Inhibition of NF-kappaB-65 (unknown origin)-mediated transactivation in TNFalpha-stimulated HEK293 cells assessed inhibition of I-kappaB phosphorylation and degradation after 24 hrs; assay type: cell-based
[10] = test system: HEK293; test: Inhibition of NF-kappaB (unknown origin) expressed in TNFalpha-stimulated HEK293 cells expressing pGL3-Luc assessed inhibition of transactivation activity after 24 hrs by luciferase assay; assay type: cell-based; conditions: Homo sapiens
[11] = test system: Mus musculus; test: Antiphotoaging activity in DBA-2 mouse assessed as reduction of UVB-induced melanocyte proliferation in ear tissue at 92.4 to 462.2 mg/kg, po as powder qd for 12 days relative to untreated control; assay type: functional; conditions: dose mg/kg 92.4-462.2

Transcription factor p65 (Homo sapiens), sequence (Q04206 whole entry): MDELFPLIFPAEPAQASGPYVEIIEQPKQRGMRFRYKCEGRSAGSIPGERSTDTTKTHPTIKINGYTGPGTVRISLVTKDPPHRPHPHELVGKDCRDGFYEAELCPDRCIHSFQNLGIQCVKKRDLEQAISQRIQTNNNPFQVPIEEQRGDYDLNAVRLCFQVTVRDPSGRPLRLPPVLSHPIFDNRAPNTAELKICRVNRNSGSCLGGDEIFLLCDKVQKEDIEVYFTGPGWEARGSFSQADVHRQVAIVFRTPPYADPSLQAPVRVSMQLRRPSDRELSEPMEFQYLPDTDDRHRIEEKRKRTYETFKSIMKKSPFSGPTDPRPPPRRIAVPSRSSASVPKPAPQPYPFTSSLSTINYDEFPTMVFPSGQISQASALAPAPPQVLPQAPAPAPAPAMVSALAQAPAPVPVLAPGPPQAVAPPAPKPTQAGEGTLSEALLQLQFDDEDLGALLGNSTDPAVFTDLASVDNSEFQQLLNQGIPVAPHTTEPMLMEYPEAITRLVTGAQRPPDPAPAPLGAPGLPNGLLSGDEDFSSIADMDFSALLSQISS

C=C(CO)C(=O)O[C@H]1CC(=C)[C@@H]2C[C@H](O)C(=C)[C@@H]2[C@H]2OC(=O)C(=C)[C@@H]21 [CYNAROPICRIN]
Activity [1]: inactive | Activity [2]: Active | Activity [3]: Dose-dependent effect | fold change (FC) [4]: 1.7 | inhibition [5]: Active | inhibition [6]: Active | inhibition [7]: Active | inhibition [8]: Active | inhibition [9]: Dose-dependent effect | inhibition [10]: Dose-dependent effect | fold change (FC) [11]: 4.3
